Measurements taken from patent US20060270709A1 (priority 2005, published 2006).

Assays:
[1] = test system: dopamine turnover in mice striatum; test: Dopamine, DOPAC and HVA content / dopamine turnover in mice striatum (HPLC-ECD); type: in vivo, C57BL/6 mice; conditions: oral; for dopamine turnover: monotherapy vs combination, mice striatum (FIG. 3)
Method: C57BL/6 mice (SLC, Shizuoka, Japan) were used for the experiment. […] The two drugs were orally administered by gavage 1 hour before sampling. At the time the mice were sacrificed, both striata were rapidly dissected and were frozen by liquid nitrogen. The samples were subsequently sonicated in 0.5 ml of chilled 0.5 M perchloric acid containing 0.1 M EDTA, and centrifuged at 13000 rpm for 15 min at 4° C. Then monoamine levels were measured by HPLC with electrochemical detection. Supernatant aliquots of 20 μl were separated over an Eicompak SC5-ODS column (3×150 mm; Eicom, Japan) with mobile phase of 17% methanol, 83% 0.1M acetate/citrate buffer (pH 3.5) containing 190 mg/ml sodium 1-octanesulfonate and 50 mg/ml EDTA, and a flow rate of 0.65 ml/min. Peaks of dopamine, DOPAC, HVA, 5-HT, and 5-HIAA were quantified by area integration with PowerChrom (eDAQ, Australia), and concentrations were expressed as nanograms per milligram of striatal tissue.

[2] = test system: NMDA-induced neural toxicity in cortical neurons; test: NMDA-induced neural toxicity in cortical neurons (LDH release); type: cell-based, rat (Wistar, fetal); conditions: 200 μM NMDA 24 h
Method: The cortical tissues were dissociated to single cells by gentle trituration. […] The cell suspension was centrifuged at 310×g for 3 min and the resulting pellets were resuspended in the medium described above.

[3] = test system: AMPA-mediated neurodegeneration in CA1 region of organotypic hippocampal slice cultures; test: AMPA toxicity in organotypic hippocampal slice cultures (PI fluorescence in CA1); type: cell-based, Wistar rat
Method: (§1) Organotypic hippocampal slice cultures were prepared using the basic method of Pringle et al, Brain Research, 755:36-46 (1997) modified as follows. Wistar rat pups (8-11 days old) were decapitated and the hippocampus rapidly dissected into ice-cold Gey's balanced salt solution supplemented with 4.5 mg/ml glucose. Transverse sections (400 μm) were cut on a McIlwain tissue chopper and placed back into ice-cold Gey's balanced salt solution. Slices were separated and plated onto Millicell CM culture inserts (4 per well) and maintained at 37° C./5% CO2 for 14 days. […] Medium was changed every 3-4 days.
(§2) PI fluorescence was detected using a Leica DMIL inverted microscope fitted with a rhodamine filter set. Any cultures in which PI fluorescence was detected at this stage were excluded from further study. […] Neuronal damage was assessed by PI fluorescence imaging 24 hours after the initiation of the neurotoxic insult. Neurotoxicity protocols are outlined below.
(1) AMPA: Cultures were transferred to fresh SFM (+PI) containing 30 μM S-AMPA for 3 hours under normal culture conditions. At the end of this period, cultures were returned to fresh SFM for 21 hours prior to determination of neuronal death by PI imaging. GYK152466 (30 μM) was used as a positive, neuroprotective control.
(§3) Neuronal damage was assessed using ImageJ software running on a PC. Images were captured using a monochrome CCD camera and saved for otlline analysis. Light transmission images were captured prior to the addition of drugs, and PI fluorescence images recorded at the end of the 24-hour recovery period. The area of the CA1 region was determined from the transmission image. The area of PI fluorescence in the CA1 was measured using the threshold function on ImageJ, and neuronal damage expressed as the percentage of the CA1 in which PI fluorescence was detected above background. Morrison et al, Br. J. Pharmacol., 137:1255-1268 (2002).

[4] = test system: OGD-induced neurotoxicity in CA1 region of organotypic hippocampal slice cultures; test: Oxygen-glucose deprivation (OGD) in organotypic hippocampal slice cultures (PI fluorescence in CA1); type: cell-based, Wistar rat
Method: as §1, §2
(2) Oxygen-Glucose Deprivation (OGD): Experimental ischaemia was performed by exposing cultures to oxygen-glucose deprivation (OGD) as described previously. Pringle et al, Brain Research, 755:36-46 (1997); Pringle et al, Stroke, 27:2124-2130 (1996); Morrison et al, Br. J. Pharmacol., 137:1255-1268 (2002). OGD was induced by transferring cultures to glucose-free SFM (+PI) which had been saturated with 95% N2/5% CO2. Culture plates (without lids) were then sealed into an airtight chamber in which the atmosphere was saturated with 95% N2/5% CO2 by continuously blowing through gas at 10 L/min for ten minutes before being sealed and placed in the incubator for 50 mins (total time of OGD was therefore 60 mins). At the end of the period of OGD cultures were returned to normoxic SFM containing PI and placed back in the incubator for 23 hours.
as §3

[5] = test system: duroquinone-induced injury in CA1 region of organotypic hippocampal slice cultures; test: Free radical-mediated toxicity (duroquinone) in organotypic hippocampal slice cultures; type: cell-based, Wistar rat; conditions: 100 μM duroquinone 3 hours, duroquinone alone 51.0±3.4%
Method: as §1
as §2, with “below. […]” for “below.”
(§4) Neuronal damage was assessed using ImageJ software running on a PC. […] Light transmission images were captured prior to the addition of drugs, and PI fluorescence images recorded at the end of the 24-hour recovery period. The area of the CA1 region was determined from the transmission image. […]

[6] = test system: NMDA-induced neurotoxicity in CA1 region of organotypic hippocampal slice cultures; test: NMDA-induced neurotoxicity in organotypic hippocampal slice cultures; type: cell-based, Wistar rat; conditions: 10 μM NMDA 3 hours, NMDA alone 35.1±[…]
Method: as §1, §2
At the end of this period, cultures were returned to fresh SFM for 21 hours prior to determination of neuronal death by PI imaging.
as §4

[7] = test system: hypoxia-induced neurodegeneration in CA1 region of organotypic hippocampal slice cultures; test: Hypoxia-induced neurodegeneration in organotypic hippocampal slice cultures; type: cell-based, Wistar rat
Method: as §1, §2
(3) Hypoxia: Hypoxia was performed by exposing cultures to oxygen-deprivation as described previously. Pringle et al, Brain Research, 755:36-46 (1997); Pringle et al, Stroke, 27:2124-2130 (1996). Hypoxia was induced by transferring cultures to SFM (+PI) which had been saturated with 95% N2/5% CO2. Culture plates (without lids) were then sealed into an airtight chamber in which the atmosphere was saturated with 95% N2/5% CO2 by continuously blowing through gas at 10 L/min for ten minutes before being sealed and placed in the incubator for 170 mins (total time of hypoxia was therefore 180 mins). At the end of the period of hypoxia, cultures were returned to normoxic SFM (+PI) and placed back in the incubator for 21 hours. The freeradical scavenger MnTBAP (100 μM) was used as a positive neuroprotective control.
as §3

[8] = C57BL/6, mouse, in vivo, po, 1 h
[9] = 1 hour before sampling (FIG. 2)

## N#Cc1ccccc1-c1cc(-c2ccccn2)cn(-c2ccccc2)c1=O [2-(2-oxo-1-phenyl-5-pyridin-2-yl-1,2-dihydropyridin-3-yl)benzonitrile]
[1]; 1 mg/kg, 1 hour before sampling (FIG. 1)
  content of HVA in striatum: elevated
[1]
  dopamine turnover: modulated dopamine turnover but neither reached significance
[2]
  concentration from which the effect reached a plateau: ≥ 0.3 mM
[2]; drugs 24 hours before and during exposure (FIG. 5)
  neuronal survival (LDH release): showed effects
[3]; 0.1 μM, 30 μM AMPA 3 hours, AMPA alone 65.1±1.7%
  damage in CA1 (PI fluorescence): 63.9±2.6%
[3]; 0.3 μM, 30 μM AMPA 3 hours, AMPA alone 65.1±1.7%
  damage in CA1 (PI fluorescence): 50.4±2.5%
[3]; 0.5 μM, 30 μM AMPA, AMPA alone 62.4±[…]
  area of PI fluorescence, % of CA1: 33.6±4.0%
[3]; 3 μM, 30 μM AMPA 3 hours, AMPA alone 65.1±1.7%
  damage in CA1 (PI fluorescence): 0.1±0.1%
[3]; Rattus norvegicus, 3 h, read-out: EC50 in this model of AMPA toxicity
  EC50: 500 nM
[4]; 0.1 μM, 60 minutes OGD, initial set, OGD alone 50.6±5.2%
  damage in CA1 (PI fluorescence): 64.4±3.6%
[4]; 0.5 μM, OGD second series, OGD alone 44.8±[…]
  damage in CA1 (PI fluorescence): 55.3±3.1%
[4]; any other concentration assessed (up to 3 μM), 60 minutes OGD
  effect on OGD-induced PI fluorescence: no significant effect
[4]; six-point concentration-response curve, 60 minutes OGD
  EC50 in OGD model: could not be established
[5]; 0.5 μM
  damage in CA1 (PI fluorescence): 69.1±4.0%
[6]; 0.5 μM
  damage in CA1 (PI fluorescence): 29.1±2.9%
[7]; 0.1 μM, 3 hours hypoxia, first set, hypoxia alone 45.1±3.5%
  damage in CA1 (PI fluorescence): 24.8±6.3%
[7]; 0.1 μM, hypoxia, second set, hypoxia alone 36.4±[…]
  damage in CA1 (PI fluorescence): 36.7±4.2%
[7]; 0.5 μM, hypoxia, repeated experiment, hypoxia alone 36.9+[…]
  damage in CA1 (PI fluorescence): 27.1±3.5%
[7]; 5 μM, 3 hours hypoxia, first set, hypoxia alone 45.1±3.5%
  damage in CA1 (PI fluorescence): 3.9±1.8%

## CC1=NN=C(c2ccc(N)cc2)c2cc3c(cc2C1)OCO3 [GYK152466, reference compound]
[3]; 30 μM test substance, 30 μM AMPA 3 hours, AMPA alone 65.1±1.7%
  damage in CA1 (PI fluorescence): 14.3±2.3%
[3]; 30 μM, pre-incubation time experiments, AMPA alone 46.5±5.0%
  damage in CA1 (PI fluorescence): 21.7±2.7%
[4]; 30 μM, 60 minutes OGD, initial set, OGD alone 50.6±5.2%
  damage in CA1 (PI fluorescence): 36.9±3.6%

## C[C@]12N[C@H](Cc3ccccc31)c1ccccc12 [MK-801, reference compound]
[6]; 10 μM
  damage in CA1 (PI fluorescence): 0.0±0.0%

## O=C(O)c1ccc(/C2=C3\C=CC(=N3)/C(c3ccc(C(=O)O)cc3)=c3/cc/c4[n]3[Mn]([Cl])[n]3c2ccc3/C(c2ccc(C(=O)O)cc2)=C2/C=CC(=N2)\C=4c2ccc(C(=O)O)cc2)cc1 [MnTBAP, reference compound]
[4]; 100 μM, 60 minutes OGD, initial set, OGD alone 50.6±5.2%
  damage in CA1 (PI fluorescence): 0.1±0.0%
[4]; 100 μM, OGD second series, OGD alone 44.8±[…]
  damage in CA1 (PI fluorescence): 0.6±0.2%
[5]; 100 μM
  damage in CA1 (PI fluorescence): 0.1±0.0%
[7]; 100 μM, 3 hours hypoxia, first set, hypoxia alone 45.1±3.5%
  damage in CA1 (PI fluorescence): 0.2±0.1%
[7]; 100 μM, hypoxia, repeated experiment, hypoxia alone 36.9+[…]
  damage in CA1 (PI fluorescence): 0.8±0.4%
[7]; 100 μM, hypoxia, second set, hypoxia alone 36.4±[…]
  damage in CA1 (PI fluorescence): 0.0±0.0%

## COc1cc2c(cc1OC)C(=O)C(CC1CCN(Cc3ccccc3)CC1)C2 (stereo not shown) [donepezil, 1-benzyl-4-((5,6-dimethoxy-1-indanon)-2-yl)methylpiperidine]
[1]
  dopamine turnover: modulated dopamine turnover but neither reached significance
[1]; [9]
  DPAC/DA: increased significantly
  HVA/DA: increased significantly
  content of dopamine in striatum: reduced the content of dopamine significantly
[8]
  dose at which peripheral side effect was shown: ≥ 7.5 mg/kg
